Laboratory results published in PubChem BioAssay (NCI).
Several values for one entry are separate records, joined by “and”; a condition that tells them apart may be missing. Identical values can stand only once.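 Step 1: Grow cells in 96-well plates. Step 2: Expose to compound for 48 hours at 5 concentrations. Step 3: Interpolate endpoints linearly; if unreached, use highest concentration. Here, GI50 denotes the concentration required for 50% inhibition of growth. Definition used: TGI = concentration required for complete inhibition of growth.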

Assays:
Assay in all cases: inhibition of tumour cell growth, NCI panel, 48 h
ACHN renal = system: ACHN renal
MOLT-4 leukemia = system: MOLT-4 leukemia
OVCAR-5 ovarian = system: OVCAR-5 ovarian
COLO 205 colon = system: COLO 205 colon
NCI/ADR-RES ovarian = system: NCI/ADR-RES ovarian
A498 renal = system: A498 renal
K-562 leukemia = system: K-562 leukemia
MALME-3M melanoma = system: MALME-3M melanoma
EKVX NSCLC = system: EKVX NSCLC
UACC-257 melanoma = system: UACC-257 melanoma

Row | Compound | GI50 (ACHN renal) [µM] | TGI (ACHN renal) | GI50 (MOLT-4 leukemia) [µM] | TGI (MOLT-4 leukemia) | GI50 (OVCAR-5 ovarian) [µM] | TGI (OVCAR-5 ovarian) [µM] | GI50 (COLO 205 colon) [µM] | TGI (COLO 205 colon) | GI50 (NCI/ADR-RES ovarian) [µM] | TGI (NCI/ADR-RES ovarian) | GI50 (A498 renal) [µM] | TGI (A498 renal) [µM] | GI50 (K-562 leukemia) [µM] | TGI (K-562 leukemia) | GI50 (MALME-3M melanoma) [µM] | TGI (MALME-3M melanoma) [µM] | GI50 (EKVX NSCLC) [µM] | TGI (EKVX NSCLC) | GI50 (UACC-257 melanoma) [µM] | TGI (UACC-257 melanoma)
1 | CCOc1cccc(/C=N/NC(=O)c2ccccc2Nc2ccnc(C(F)(F)F)c2)c1O | 0.271 | > 67.8 µM | 0.116 | 0.459 µM | 5.39 | > 100 | 0.347 | 36.9 µM | 0.506 | 26.3 µM | 20.1 | > 74.8 | 0.322 | 10.4 µM | 0.835 | 43.6 | 0.404 | > 100 µM | 0.693 | 47.6 µM
2 | O=C(c1ccco1)c1nc2ccc(C(F)(F)F)cc2[n+]([O-])c1C(F)(F)F | 54.5 | > 100 µM | > 100 | > 100 µM | > 100 | > 100 | 77.8 | > 100 µM | > 100 | > 100 µM | 33.7 | > 100 | 31.3 | > 100 µM | 27.9 | 77.2 | 12.9 | > 100 µM | 26.5 | 99.4 µM
3 | COC(=O)c1cc2c3ccccc3[nH]c2c2ncccc12 | 11.2 | > 100 µM | > 100 | > 100 µM | 32.3 | > 100 | > 100 | > 100 µM | 56.2 | > 100 µM | > 100 | > 100 | 75.3 | > 100 µM | > 100 | > 100 | 11.5 | > 100 µM | > 100 | > 100 µM
4 | COc1cc(OC)cc(-c2ccc(-c3ccc(C(=N)N)o3)o2)c1 | 2.05 | 4.22 µM | 2.44 | 6.7 µM | 2.34 | 5.25 | 1.84 | 3.79 µM | 8.26 | 22.4 µM | 2.89 | 15.3 | 1.98 | 4.47 µM | 2.04 | 4.21 | 5.09 | 18.5 µM | 2.41 | 5.41 µM
5 | CCOC(=O)/C=C(/C(=O)OCC)n1cc(Cl)c(=O)n(CC(=O)OCC)c1=O | 2.55 | 7.35 µM and 6.22 µM | 3.29 | 25 µM and 10.5 µM | 36.6 |  | 1.32 | 2.81 µM and 2.59 µM |  | 25 µM and 97.7 µM |  | 34.6 | 4.24 | 25 µM and > 100 µM |  | 10.3 | 23.4 | 10.3 µM and 53.1 µM | 20.7 | 25 µM and 57.9 µM
6 | O=c1oc2ccc(F)cc2c(=O)n1-c1ccc(F)cc1F | 2.71 | 8.63 µM | 3.46 | > 100 µM | 3.46 | > 100 | 3.56 | 12.5 µM | 3.24 | > 100 µM | 1.62 | 3.91 | 3.11 | > 100 µM | 2.25 | 6.33 | 2.54 | 9.79 µM | 2.29 | 7.15 µM
7 | CC1=C(CCCNS(C)(=O)=O)C2=C(C)C3(CC3)[C@@](C)(O)C(=O)C2=C1 | 2.14 | 7.58 µM | 37.2 | > 100 µM | 0.654 | 7.62 | 0.853 | 2.69 µM | 1.38 | 18.1 µM | 1.05 | 2.77 | 61.8 | > 100 µM | 0.776 | 2.62 | 2.31 | 7.72 µM | 1.78 | 4.41 µM
8 | Cc1ccc(S(=O)(=O)N(CCOc2ccc(/C(N)=N/Cl)cc2)CCOc2ccc(/C(N)=N\Cl)cc2)cc1 | > 100 | > 100 µM | 30.6 | > 100 µM | > 100 | > 100 | 11 | 28.8 µM | > 100 | > 100 µM | 52.3 | > 100 | 4.17 | 24 µM | 19.6 | 83.6 | 18.4 | 93.2 µM | 23.3 | 90.5 µM
9 | O=C(CN1CCOCC1)Nc1ccc(Cn2nnc3c2C(=O)c2nnn(Cc4ccc(NC(=O)CN5CCOCC5)cc4)c2C3=O)cc1 | 4.01 | 20.2 µM | 0.254 | 0.705 µM | 1.94 | 4.29 | 0.199 | 0.463 µM | > 100 | > 100 µM | 1.97 | 4.39 | 0.745 | > 100 µM | 0.178 | 0.469 | 1.38 | 2.98 µM | 0.253 | 0.624 µM
10 | COc1cc2c3c(n(C)c(=O)c2cc1OC)-c1cc2c(cc1/C3=C\CCCN1C(=O)c3ccccc3C1=O)OCO2 | 8.67 | > 40 µM | 1.18 | 5.17 µM | > 40 | > 40 | > 40 | > 40 µM | > 40 | > 40 µM | > 40 | > 40 | 15 | > 40 µM | > 40 | > 40 | 5.2 | > 40 µM | > 40 | > 40 µM
11 | O=C1/C(=C/c2ccc(Br)cc2)C=C(c2ccccc2)N1CCc1ccccc1 | 0.65 | 11 µM | 18.4 | > 100 µM | 4.28 | 40.2 | 3.26 | 27.5 µM | 1.08 | 8.01 µM | 0.652 | 5.44 | 2.63 | 20.5 µM | 1.5 | 6.64 | 1.95 | 19 µM | 2.82 | 18.7 µM
12 | CC1CCC2(C(=O)O)CCC3(C)C(=CCC4C5(C)CC(O)C(O)C(C)(CO)C5C(O)CC43C)C2C1C (stereo unspecified) |  | > 100 µM |  | > 100 µM |  | > 100 |  | > 100 µM |  | > 100 µM |  | 48 |  | > 100 µM |  | > 100 |  | > 100 µM |  | > 100 µM
13 | N#Cc1ccc(C#Cc2ccccc2C#CCCCCO)cc1 | 19.1 | 33.2 µM | 17.8 | 37.7 µM | 15.1 | 28.4 | 18.1 | 34.3 µM | 17.7 | 36.9 µM | 13.8 | 27.7 | 21.7 | 46.1 µM | 21 | 38.7 | 17.9 | 35.3 µM | 17.3 | 31.4 µM
